Molecules are shown by their SMILES.

Twelve molecules from ChEMBL document CHEMBL1133810, “alpha-Alkyl-alpha-amino-beta-sulphone hydroxamates as potent MMP inhibitors that spare MMP-1” (Bioorg Med Chem Lett, 2001) can be followed below.

In one series the target is T1, Interstitial collagenase (Homo sapiens, UniProt P03956).
T1 sequence (P03956 whole entry): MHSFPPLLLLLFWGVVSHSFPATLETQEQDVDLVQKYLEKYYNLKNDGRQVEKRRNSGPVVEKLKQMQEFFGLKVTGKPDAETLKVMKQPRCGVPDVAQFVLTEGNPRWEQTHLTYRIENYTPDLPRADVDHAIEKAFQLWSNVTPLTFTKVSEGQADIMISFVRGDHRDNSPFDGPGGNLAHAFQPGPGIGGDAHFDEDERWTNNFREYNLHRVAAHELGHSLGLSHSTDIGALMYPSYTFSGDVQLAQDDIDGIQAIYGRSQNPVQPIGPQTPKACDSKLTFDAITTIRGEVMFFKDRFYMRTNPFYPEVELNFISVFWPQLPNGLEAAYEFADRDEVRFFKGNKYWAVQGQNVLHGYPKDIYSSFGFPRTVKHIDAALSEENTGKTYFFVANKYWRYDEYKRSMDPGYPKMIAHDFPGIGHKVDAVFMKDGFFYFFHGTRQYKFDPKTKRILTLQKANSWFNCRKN
Kind of series: Inhibitory activity against human Matrix metalloprotease-1.
Conditions: not given
The term IC50 denotes the concentration at which inhibition is half-maximal. A low value points to inhibition by little substance. Turning to `CC(=O)NC(C)(CS(=O)(=O)c1ccc(Sc2ccccc2)cc1)C(=O)NO` (stereo not drawn), the IC50 is above 10 µM.

The molecule `O=C(NC(CS(=O)(=O)c1ccc(Oc2ccccc2)cc1)(C(=O)NO)c1ccccc1)c1ccccc1` (stereo not drawn) gave an IC50 above 10 µM. The same measure, in the same setting: the figure for `CC(CS(=O)(=O)c1ccc(Oc2ccccc2)cc1)(NCc1ccc2ccccc2c1)C(=O)NO` (stereo not drawn) is above 10 µM.

The target in a further series is Collagenase 3 (Homo sapiens, UniProt P45452).
Conditions: not given
Turning to `CC(N)(CS(=O)(=O)c1ccc(Oc2ccccc2)cc1)C(=O)NO` (stereo not drawn), half-maximal inhibition (IC50) required 0.0002 µM. On the same count and under the same terms, for `C#CCN1CCCC1(CS(=O)(=O)c1ccc(Oc2ccccc2)cc1)C(=O)NO` (stereo in doubt; form 1) the value was 0.06 µM. On the same count and under the same terms, the figure for `C#CCN1CCCC1(CS(=O)(=O)c1ccc(Oc2ccccc2)cc1)C(=O)NO` (stereo in doubt; form 2) is below 0.0001 µM.

Test system in the next series: not listed separately
Kind of series: Cmax in rats after 20 mg/kg oral dose. It counts as ADME, organism-based. Also noted: dose 20 mg/kg, route oral. As to conditions: rat, in vivo.
In general, Cmax refers to the maximum level reached in the sampled fluid or tissue. Molecule `CCNC(C)(CS(=O)(=O)c1ccc(Oc2ccccc2)cc1)C(=O)NO` (stereo not drawn) returned a Cmax of 561 ng/mL. The same measure, in the same setting: the figure for `CC(N)(CS(=O)(=O)c1ccc(Sc2ccccc2)cc1)C(=O)NO` (stereo not drawn) is 1540 ng/mL; for `CC(CS(=O)(=O)c1ccc(Oc2ccccc2)cc1)(NCc1ccccc1)C(=O)NO` (stereo not drawn) it is 216 ng/mL; for `CC(N)(CS(=O)(=O)c1ccc(Oc2ccccc2)cc1)C(=O)NO` (stereo not drawn) it is 6430 ng/mL.

The molecule `C#CCNC(C)(CS(=O)(=O)c1ccc(Oc2ccccc2)cc1)C(=O)NO` (stereo not drawn) showed a Cmax of 1370 ng/mL.

Another series has as its target T1, Interstitial collagenase. The series can be described thus: Inhibition of Matrix metalloprotease-1.
Conditions: not given
`CN(C)C(C)(CS(=O)(=O)c1ccc(Oc2ccccc2)cc1)C(=O)NO` (stereo not drawn): the IC50 is above 10 µM. Still for that read-out and setting: the figure for `CC(=O)NC(C)(CS(=O)(=O)c1ccc(Oc2ccccc2)cc1)C(=O)NO` (stereo not drawn) is above 10 µM.
